# According to ChEMBL document CHEMBL3507680, “University of Dundee, Gates Library screen for HepG2 cell viability”:
# Assay: Human HepG2 cell viability assay in 384 well format
# Type: toxicity, cell-based
# Set-up: dose 125 nL, time 70.5 hour; concentration not given beside the values
# Settings: HepG2 cells, read-out: Inhibition
row,SMILES,cytotoxicity at 70.5 h [%]
1,COc1ccc(NC(C)=O)cc1S(=O)(=O)Nc1ccon1,-5.66
2,CN(C)C(=O)CN1CCn2cc(Cn3cccn3)nc2C1,-10.4
3,COc1ccc(C(O)CN2CC(n3cc(C)cn3)C2)cc1 (configuration not stated),-8.25
4,CCc1nc(CN2CCCN(C(=O)c3cnc(C)cn3)CC2)cs1,1.16
5,Cc1cnc(CN2CCOC(CN(C)c3cccnn3)C2)cn1 (configuration not stated),-0.738
6,Cc1cc(C(C)NC(=O)c2cnc3onc(C)c3c2)c(C)o1 (configuration not stated),-5.78
7,Cc1nc(C)n(CC2CCCN2Cc2ccn(-c3ccccc3)n2)n1 (configuration not stated),3.67
8,Cc1nc(O)cc(C2(C)CCCNC2)n1 (configuration not stated),-3.13
9,CN(CC(F)(F)F)C(=O)CNC(=O)N1CCCC(C(F)(F)F)C1 (configuration not stated),-2.98
10,O=C(CC1COCCN1S(=O)(=O)c1ccccc1)NCc1ccccn1 (configuration not stated),-15.7
11,Cc1cnn(CC2CN(CCc3ccccn3)CCO2)c1 (configuration not stated),-7.7
12,O=C1CC2(CNCCN(C(=O)Nc3ccccc3)C2)CN1 (configuration not stated),-9.89
13,Cn1cc(NC(=O)Nc2cccc3cccnc23)ccc1=O,53.3
14,Cc1ccc(-c2nc(CN(Cc3cccs3)C3CCS(=O)(=O)C3)cs2)o1 (configuration not stated),13.7
15,CCOC(C)c1nc(CN2CCC(C3OCCO3)CC2)cs1 (configuration not stated),9.96
16,Cn1ccc(C(=O)NCc2ccc(CN3CCCCC3)cc2)cc1=O,-12
17,CCN(Cc1nonc1C)C(=O)c1cc(C(F)(F)F)nn1C,-7.63
18,CO[C@@H]1CCN(C(=O)Cc2ccc(F)cc2)[C@@H]1Cc1cccnc1,-3.63
19,CC(C)Cc1cn(C2CCN(C(C)CC3CC3)CC2)nn1 (configuration not stated),-0.853
20,O=C(NC1CCCC1)N1CCC2(CC1)CC(Oc1cccnc1)CO2 (configuration not stated),26.9
21,N[C@H]1CN(S(=O)(=O)c2ccccc2)C[C@@H]1C1CC1,17.3

row,SMILES,cytotoxicity at 70.5 h [%]
1,CCn1cc(CN2CCCC(CO)(CCc3ccccc3)C2)c(C)n1 (configuration not stated),-7.26
2,CN(Cc1cccc2ncccc12)C(=O)CCn1ccc(=O)[nH]c1=O,-1.13
3,COc1ncccc1C(=O)NC1(c2cccc(F)c2)CCOCC1,22.6
4,CC(C)(C)c1ccc(S(=O)(=O)CCN2CCNC(=O)CC2)cc1,-10.4
5,c1cc(CN2CCOCC3(CCN(C4CCOCC4)C3)C2)ccn1 (configuration not stated),6.88
6,COc1ccc(Cl)cc1CNC(=O)CN1CCC2(CCOC2)C1 (configuration not stated),20
7,c1ccc(CO[C@H]2CC[C@H]3[C@H]2OCCN3CCN2CCCCC2)nc1,20.6
8,Cc1ccccc1CN1CCC(CNC(=O)Cn2cncn2)CC1,13.8
9,CS(=O)(=O)CCC(=O)N1C[C@@H]2CC[C@H](C1)N(Cc1ccccn1)C2=O,14.6
10,CCNC(c1ccc(Cl)cc1)c1cccnc1 (configuration not stated),34.5
11,NC(=O)c1c(NC(=O)C2CCCO2)sc2c1CCc1ccccc1-2 (configuration not stated),-3.81
12,Cc1ccnc(C2COCCN2C)n1 (configuration not stated),-3.5
13,Cc1cc(C)cc(OCCN2CCn3c(C)nnc3C2)c1,-4.98
14,Cn1cc(NS(=O)(=O)c2ccc3c(c2)CCCC3)ccc1=O,22.1
15,COCC(=O)N1CCCN(C(=O)C2Cc3ccccc3CN2C)CC1 (configuration not stated),11.5
16,CC(C)[C@@H]1CN(CCCOc2ccc(F)cc2)C[C@H]1NS(C)(=O)=O,-8.14
17,Cc1cc(C(=O)N2CCCC(c3cc(C(F)(F)F)[nH]n3)C2)[nH]n1 (configuration not stated),3.57
18,NC(=O)CC1c2cccnc2C(=O)N1Cc1ccccc1 (configuration not stated),-6.46
19,CC(NC(=O)N1CCS(=O)(=O)CC1)c1c(F)cccc1Cl (configuration not stated),-4.16
20,Cc1cc(C2CCCN(C(=O)c3c(C)noc3C)C2)n[nH]1 (configuration not stated),-5.28
21,Cc1noc(C)c1CNCC1COCc2c(-c3ccoc3)nnn2C1 (configuration not stated),-9.07

row,SMILES,cytotoxicity at 70.5 h [%]
1,Cc1ccccc1N1CC(C)N(C(=O)CCn2cccn2)CC1=O (configuration not stated),15.3
2,CC(=O)Nc1nc(CN2CCOC(Cn3cncn3)C2)cs1 (configuration not stated),-5.38
3,COc1ccc2[nH]cc(C(=O)N3C[C@@H](O)[C@H](N4CCOCC4)C3)c2c1,-9.96
4,CCN(C(=O)c1cc(C)oc1C)C1CC1,-4.05
5,CCc1nc(CC(=O)Nc2cnn(CC3CCCO3)c2)cs1 (configuration not stated),-7.79
6,CCC1CCc2c(c3ccccc3[nH]c2=O)O1 (configuration not stated),24.6
7,Oc1nc(N2CCCC2)nc2c1CCN(Cc1ccsc1)CC2,-8.09
8,CS(=O)(=O)NCC1CCCN(C(=O)c2ccc3c(c2)CCCC3)C1 (configuration not stated),5.26
9,CC(C)(C)C(=O)NCCc1cc(N2CCOCC2)nc(NC2CC2)n1,-9.36
10,CCNc1ncc(C(=O)NC2CCc3ccccc3C2)cn1 (configuration not stated),54.4
11,CN(Cc1ccco1)C(=O)C1CSCN1C(=O)C1CCC1 (configuration not stated),-8.79
12,CCc1cn[nH]c1C1CCN(c2cc(C)c3cc(OC)ccc3n2)CC1,1.76
13,Cn1cnc(S(=O)(=O)N2CCCc3cccc(F)c32)c1Cl,-0.174
14,O=C(CN1CCOc2ccc(Cl)cc21)NCc1ncc[nH]1,-2.35
15,CN(C)Cc1ccnc(C2CN(CCCc3ccccc3)CCO2)n1 (configuration not stated),-6.75
16,O=S(=O)(Nc1ccc(N2CCOCC2)cn1)c1cccc(F)c1,-3.99
17,COc1ccc(CCNC(=O)N2CCN(C)[C@@H]3CS(=O)(=O)C[C@@H]32)cc1,-3.24
18,CN(C)C(=O)CN1CCC(c2c(C(N)=O)sc3ncccc23)C1 (configuration not stated),-5.25
19,CNC(=O)NC1CC2(CCNCC2)c2ccc(C)cc21 (configuration not stated),18.2
20,Cc1noc(C)c1CCC(=O)N1CCN(Cc2cscn2)CC1,-2.32
21,C=C(C)COc1cccc(C(=O)N(CC)Cc2nc(COC)no2)c1,-7.82

row,SMILES,cytotoxicity at 70.5 h [%]
1,COCCNC(=O)[C@H]1C[C@@H]2CCN(CCc3ccccc3)C[C@@H]2O1,-4.71
2,COCC1c2nnn(C)c2CCN1C(=O)c1ccc(OC)c(F)c1 (configuration not stated),-7.3
3,CC(C)CNC(=O)c1nc2c(s1)CCN(C(=O)c1ccc(Cl)cc1)CC2,-3.22
4,COc1ccc(Oc2nccnc2C2CCN(C(C)=O)CC2)cc1,-4.84
5,Cc1c[nH]nc1C1CCCCN1C(=O)CCn1nccc1C (configuration not stated),11.5
6,CCC(C)N(Cc1cnc(NC(C)C)nc1)Cc1ccsc1 (configuration not stated),-4.23
7,CCc1ccc(C(COC)NC(=O)c2ccc(F)c(NC(C)=O)c2)o1 (configuration not stated),23.6
8,Cn1ncnc1NCc1ccc(F)cc1,-9.9
9,CC1(Cc2ccccn2)NCCc2[nH]cnc21 (configuration not stated),-1.72
10,CCS(=O)(=O)NC(C(=O)NC)c1ccc(F)c(F)c1 (configuration not stated),2.45
11,Cc1nccn1CCN(C)C(=O)C1CCN(C(=O)C2CCCC2)CC1,8.88
12,CCOC(=O)C1CCN(Cc2csc(-c3ccc(C)o3)n2)CC1,-3.12
13,NC(=O)C1(c2cnccn2)CCCN1Cc1cc2ccccc2o1 (configuration not stated),-9.2
14,CC(C)n1cnnc1CN(C)Cc1cnc(-c2ccccn2)nc1,-5.94
15,COCCSc1ccc(-n2cccn2)nn1,12.3
16,Cn1cc(Cl)cc1C(=O)N1CCCN(Cc2cccs2)CC1,4.57
17,CC(=O)N1Cc2nc(C(=O)NCCc3cccnc3)oc2C1,-6.92
18,COCCn1ccc(=O)c(OCC(=O)Nc2ccc(Br)cc2)c1C,-7.36
19,Cc1cc(NC(=O)C(C)N2CCN(c3nc(C)cs3)CC2)on1 (configuration not stated),-5.64
